# From US20160115186A1, “PHOSPHORIC ACID/PHOSPHONIC ACID DERIVATIVES AND MEDICINAL USES THEREOF” (priority 2013, published 2016)
# pIC50: −log10 of the molar value. Where two headings read alike, the source gives them in different places.
# Key:
# [1] = in vitro; type: cell-based; conditions: human; Hep G 2.2.15 cells, MTT, day 3 post-dosing
# Description: Hep G 2.2.15 cells were inoculated in a 96-well plate (with cell number being 5.5×10^4) to continually cultivate for 3 days, new culture solutions containing different concentrations of drugs were added, and 3 wells were provided in parallel; at day 3 post-dosing, MTT was added until 7.5 mg/ml, and continued to cultivate for 2 hours, the supernate was discarded, isopropanol containing 10% […] was added, 120 μl/well, and 0.4 μl/well was further added.
# [2] = test system: HBV; test: microbe, parasite or virus in culture; type: cell-based
# Description: At day 10 post-dosing, 100 μl supernate was taken and the content of HBV DNA was measured by the method of Quantitative PCR to calculate IC50 value.
# [3] = test system: liver damage in mice caused by D-aminogalactose; type: in vivo, Kunmin mice; conditions: serum, D-aminogalactose 750 mg/kg model, 0.2 mmol oral twice, 24 hours after second administration
# Description: Kunmin mice (20 g) were grouped randomly (8/group). 0.2 mmol of a compound to be tested was orally administered; after 2 hours post-dosing, D-aminogalactose was intraperitoneally injected at a dose of 750 mg/kg to prepare a liver damage model, and the normal saline was subcutaneously injected as a normal control group. After modeling for 12 hours, 0.2 mmol of the compound to be tested was orally administrated again. After 24 hours from the second administration, blood samples were collected to take serum specimen so as to determine ALT, AST.
# [4] = test system: liver damage in mice caused by CCl4; type: in vivo, Kunmin mice; conditions: serum, CCl4 model, 0.2 mmol oral twice, 24 hours after second administration
# Description: Kunmin mice (20 g) were grouped randomly (8/group). 0.2 mmol of a compound to be tested was orally administered; after 1 hour post-dosing, a 0.1% peanut oil solution of CCl4 was subcutaneously injected (10 mL/kg), to prepare a liver damage model; the normal saline was injected as a normal control group. After modeling for 12 hours, 0.2 mmol of the compound to be tested was orally administrated again. After 24 hours from the second administration, blood samples were collected to take serum specimen so as to determine ALT, AST.
# [5] = test system: DHBV; test: animal or person; type: in vivo, sheldrakes; conditions: Duck hepatitis B virus, po, 336 h; for inhibition in vivo at 0.5 mg/kg: 0.5 mg/kg intragastric once a day for 14 days; for inhibition in vivo at 10 mg/kg: 10 mg/kg intragastric once a day for 14 days
# Description: The sheldrakes infected by vertical transmission and being positive in DHBV DNA detection were grouped randomly, 5/group. Water and different doses of the compound to be tested were intragastrically administrated, respectively, once a day, for 14 days. Venous blood samples were collected pre-dosing, at day 14 of dosing and at day 7 after drug withdrawal, the serum DHBV DNA content was measured using external standard TaqMan real-time fluorescence PCR method, and the inhibition ratio was calculated, as compared to the solvent group.
# [6] = Hepatitis B virus, HepG2.2.15, 240 h
# [7] = read-out: Inhibition ratio (%) Day 14 of dosing
# [8] = read-out: Inhibition ratio (%) day 7 after drug withdrawal
# [9] = Hepatitis B virus, HepG2.2.15, 240 h, Hep G 2.2.15 cells, HBV DNA in supernate at day 10 post-dosing, read-out: IC50
# [10] = serum DHBV DNA, read-out: Inhibition ratio (%) Day 14 of dosing
# [11] = serum DHBV DNA, read-out: Inhibition ratio (%) day 7 after drug withdrawal
smiles,measurement,setting,value
"C[C@H](Cn1cnc2c(N)ncnc21)OCP(=O)(Oc1ccc2c(c1)OCO2)Oc1ccc2c(c1)OCO2 [Compound I6, 9-[(R)-2-[[bis-((benzo[1,3]dioxolan-5-yl)-oxyl)-phosphonyl]-methoxyl]-propyl]-adenine]",CC50 at 3 days,[1],> 200 µM
same,pIC50,[2]; [6],6.39
"Nc1ncnc2c1ncn2CCOCP(=O)(Oc1cccc2c1OCO2)Oc1cccc2c1OCO2 [Compound I1, 9-[[[bis-((benzo[1,3]dioxolan-4-yl)-oxyl)-phosphonyl]-methoxyl]-ethyl]-adenine]",ALT,[3],679 U/L
same,AST,[3],796 U/L
same,CC50 at 3 days,[1],> 200 µM
same,pIC50,[2]; [6],5.09
same,ALT,[4],328 U/L
same,AST,[4],433 U/L
COC(=O)[C@@H](C)NP(=O)(CO[C@H](C)Cn1cnc2c(N)ncnc21)Oc1ccc2c(c1)OCO2 (some centres unmarked) [Compound I19],CC50 at 3 days,[1],146 µM
same,pIC50,[2]; [6],8.10
"COc1ccc(Sc2nc(N)nc3c2ncn3CCOCP(=O)(N[C@H](C)C(=O)OC(C)C)Oc2ccc3c(c2)OCO3)cc1 (some centres unmarked) [Compound I26, 2-amino-6-(4-methoxylphenyl)thio-9-[[[(((benzo[1,3]dioxolan-5-yl)-oxyl)-1-isopropyloxylcarbonylethylamino)-phosphonyl]-methoxyl]-ethyl]-purine]",ALT,[3],212 U/L
same,AST,[3],586 U/L
same,CC50 at 3 days,[1],> 200 µM
same,pIC50,[2]; [6],7.41
same,inhibition in vivo at 25 mg/kg,[5]; [7],93.5%
same,inhibition in vivo at 25 mg/kg,[5]; [8],11.5%
same,ALT,[4],521 U/L
same,AST,[4],363 U/L
"Nc1ncnc2c1ncn2CCOCP(=O)(Oc1ccc2c(c1)OCCO2)Oc1ccc2c(c1)OCCO2 [Compound I4, 9-[[[bis-((benzo[1,4]dioxan-6-yl)-oxyl)-phosphonyl]-methoxyl]-ethyl]-adenine]",CC50 at 3 days,[1],> 200 µM
same,pIC50,[2]; [6],5.50
"Nc1ncnc2c1ncn2CCOCP(=O)(Oc1ccccc1)Oc1ccccc1 [i-1, 9-[[bis-(phenoxyl)-phosphonyl-methoxyl]-ethyl]-adenine, reference compound]",ALT,[3],1227 U/L
same,AST,[3],1456 U/L
same,pIC50,"[2]; Hep G 2.2.15 cells, HBV DNA in supernate at day 10 post-dosing, read-out: IC50",4.95
same,ALT,[4],2930 U/L
same,AST,[4],2943 U/L
"Nc1ccn(C2CSC(COP(=O)(Oc3ccc4c(c3)OCO4)Oc3ccc4c(c3)OCO4)O2)c(=O)n1 (centres unmarked) [Compound I14, 5′-bis-[((benzo[1,3]dioxolan-5-yl)-oxyl)-phosphoryl]-2′,3′-dideoxy-3′-thia-cytidine]",CC50 at 3 days,[1],> 200 µM
same,pIC50,[2]; [6],5.28
"C=C1[C@H](COP(=O)(Oc2ccc3c(c2)OCO3)Oc2ccc3c(c2)OCO3)[C@@H](O)C[C@@H]1n1cnc2c(=O)[nH]c(N)nc21 [Compound I15, 9-[(1S,3R,4S)-4-hydroxyl-3-(bis-(((benzo[1,3]dioxolan-5-yl)-oxyl)-phosphoryl)-oxymethyl)-2-methylenecyclopentyl]-guanine]",CC50 at 3 days,[1],> 200 µM
same,pIC50,[2]; [6],6.92
"Nc1ncnc2c1ncn2CCOCP(=O)(Oc1ccc2c(c1)OCO2)Oc1ccc2c(c1)OCO2 [Compound I2, 9-[[[bis-((benzo[1,3]dioxolan-5-yl)-oxyl)-phosphonyl]-methoxyl]-ethyl]-adenine]",ALT,[3],514 U/L
same,AST,[3],560 U/L
same,CC50 at 3 days,[1],> 200 µM
same,pIC50,[2]; [6],6.33
same,ALT,[4],435 U/L
same,AST,[4],764 U/L
C=C1[C@H](CO[P@](=O)(N[C@@H](C)C(=O)OC(C)C)Oc2ccc3c(c2)OCO3)[C@@H](O)C[C@@H]1n1cnc2c(=O)[nH]c(N)nc21 [Compound I38-a],ALT,[3],177 U/L
same,AST,[3],275 U/L
same,CC50,[1],139 µM
same,pIC50,[2]; [9],9.00
same,inhibition in vivo at 0.5 mg/kg,[5]; [10],76.2%
same,inhibition in vivo at 0.5 mg/kg,[5]; [11],31.4%
same,ALT,[4],410 U/L
same,AST,[4],289 U/L
"COC(=O)C(C)NP(=O)(OCC1OC(n2ccc(N)nc2=O)CS1)Oc1ccccc1 (centres unmarked) [Cf1109, reference compound]",ALT,[3],191 U/L
same,AST,[3],140 U/L
same,CC50,[1],82 µM
same,pIC50,[2]; [9],6.89
same,inhibition in vivo at 20 mg/kg,"[5]; serum DHBV DNA, 20 mg/kg intragastric once a day for 14 days, read-out: Inhibition ratio (%) Day 14 of dosing",68.8%
same,inhibition in vivo at 20 mg/kg,"[5]; serum DHBV DNA, 20 mg/kg intragastric once a day for 14 days, read-out: Inhibition ratio (%) day 7 after drug withdrawal",5.38%
same,ALT,[4],2048 U/L
same,AST,[4],3351 U/L
CC(C)OC(=O)[C@H](NP(=O)(CO[C@H](C)Cn1cnc2c(N)ncnc21)Oc1ccc2c(c1)OCO2)C(C)C (some centres unmarked) [Compound I22],CC50 at 3 days,[1],> 200 µM
same,pIC50,[2]; [6],6.77
"COc1nc(N)nc2c1ncn2COCCOP(=O)(Oc1ccc2c(c1)OCO2)Oc1ccc2c(c1)OCO2 [Compound I13, 2-amino-6-methoxyl-9-[[[bis-((benzo[1,3]dioxolan-5-yl)-oxyl)-phosphoryloxyl]-ethoxyl]-methyl]-purine]",CC50 at 3 days,[1],> 200 µM
same,pIC50,[2]; [6],6.54
COc1nc(N)nc2c1ncn2COCCOP(=O)(N[C@H](C)C(=O)OC(C)C)Oc1ccc2c(c1)OCO2 (some centres unmarked) [Compound I29],ALT,[3],301 U/L
same,AST,[3],510 U/L
same,CC50,[1],> 200 µM
same,pIC50,[2]; [9],6.85
same,inhibition in vivo at 10 mg/kg,[5]; [10],90.8%
same,inhibition in vivo at 10 mg/kg,[5]; [11],17.1%
same,ALT,[4],307 U/L
same,AST,[4],561 U/L
"Nc1ncnc2c1ncn2CCOCP(=O)(Oc1cccc2c1OCCO2)Oc1cccc2c1OCCO2 [Compound I3, 9-[[[bis-((benzo[1,4]dioxan-5-yl)-oxyl)-phosphonyl]-methoxyl]-ethyl]-adenine]",CC50 at 3 days,[1],> 200 µM
same,pIC50,[2]; [6],5.22
"Nc1nc2c(ncn2COCCOP(=O)(Oc2ccc3c(c2)OCO3)Oc2ccc3c(c2)OCO3)c(=O)[nH]1 [Compound I12, 9-[[[bis-((benzo[1,3]dioxolan-5-yl)-oxyl)-phosphoryloxyl]-ethoxyl]-methyl]-guanine]",CC50 at 3 days,[1],> 200 µM
same,pIC50,[2]; [6],6.62
CC(C)OC(=O)[C@@H](C)NP(=O)(CO[C@H](C)Cn1cnc2c(N)ncnc21)Oc1cccc2c1OCO2 (some centres unmarked) [Compound I24],CC50 at 3 days,[1],> 200 µM
same,pIC50,[2]; [6],5.34
"Nc1ccn([C@@H]2CS[C@H](CO)O2)c(=O)n1 [Lamivudine, lamivudine, reference compound]",pIC50,[2]; [9],7.12
same,inhibition in vivo at 20 mg/kg,[5]; [7],76.1%
same,inhibition in vivo at 20 mg/kg,[5]; [8],2.35%
"Nc1nc2c(ncn2COCCOP(=O)(Oc2cccc3c2OCO3)Oc2cccc3c2OCO3)c(=O)[nH]1 [Compound I11, 9-[[[bis-((benzo[1,3]dioxolan-4-yl)-oxyl)-phosphoryloxyl]-ethoxyl]-methyl]-guanine]",CC50 at 3 days,[1],> 200 µM
same,pIC50,[2]; [6],5.78
"Nc1nc2c(ncn2COCCO)c(=O)[nH]1 [Acyclovir, acyclovir, reference compound]",pIC50,[2]; [9],4.59
same,inhibition in vivo at 20 mg/kg,[5]; [7],12.5%
same,inhibition in vivo at 20 mg/kg,[5]; [8],2.64%
"Nc1ncnc2c1ncn2CCOCP(=O)(Oc1cccc2ccccc12)Oc1cccc2ccccc12 [i-2, 9-[[bis-(naphthoxy)-phosphonyl-methoxyl]-ethyl]-adenine, reference compound]",ALT,[3],1374 U/L
same,AST,[3],1812 U/L
same,CC50 at 3 days,[1],152 µM
same,pIC50,[2]; [6],5.72
same,ALT,[4],3482 U/L
same,AST,[4],3660 U/L
